Among the data in patent publication US20240398757A1 (COCRYSTAL PHARMA, INC., priority 2022, published 2024) are IC50 values, retold here.

A word on the IC50: it is the concentration at which inhibition is half-maximal.

This assay addresses T1, SARS2 protease (Severe acute respiratory syndrome coronavirus 2, UniProt P0DTD1).
T1 construct: SARS2 protease was added to a final concentration of 30 nM
The assay is described as follows: SARS-CoV-2 protease inhibition assay (SARS2 FRET protease assay). As to conditions: IC50 (μM), SARS2 protease 30 nM, peptide substrate 1.3 μM, 120 minutes at 37° C., compounds 20 μM to 0.075 nM. Format: biochemical.
Compound `O=C[C@H](C[C@@H]1CCCNC1=O)NC(=O)[C@H](CC1CCCCC1)NC(=O)OC(c1ccccc1)C(F)(F)c1cccc(Cl)c1` (stereo partly drawn) [Compound A124] yielded an IC50 of 0.1 nM. The value for `O=C[C@H](C[C@@H]1CCNC1=O)NC(=O)[C@H](CC1CCCCC1)NC(=O)O[C@@H](c1ccccc1)C(F)(F)c1cccc(Cl)c1` [Compound A125] was 4.2 nM; that for `O=C[C@H](C[C@@H]1CCNC1=O)NC(=O)[C@H](CC1CCCCC1)NC(=O)O[C@@H](c1ccccc1)C(F)(F)c1cccc(F)c1` [Compound A126] was < 0.01 nM; that for `CCCC[C@H](NC(=O)OC(c1ccccc1)C(F)(F)c1cccc(Cl)c1)C(=O)N[C@@H](C[C@@H]1CCCNC1=O)C(=O)C(=O)NC1CC1` (stereo partly drawn) [Compound A127] was 10 nM. In turn, `CCOC(=O)/C=C/[C@H](C[C@@H]1CCNC1=O)NC(=O)[C@H](CC(C)C)NC(=O)OC(c1ccccc1)C(F)(F)c1cccc(Cl)c1` (stereo partly drawn) [Compound A128] displayed an IC50 of 3950 nM.

`O=C(N[C@@H](CC1CCCCC1)C(=O)N[C@@H](C[C@@H]1CCCNC1=O)C(=O)C(=O)NC1CC1)OC(c1ccccc1)C(F)(F)c1cccc(Cl)c1` (stereo partly drawn) [Compound A129]: 130 nM corresponded to half-maximal inhibition (IC50).

In the case of `CCNC(=O)C(=O)[C@H](C[C@@H]1CCNC1=O)NC(=O)[C@H](CC1CCCCC1)NC(=O)OC(c1ccccc1)C(C)(C)c1cccc(F)c1` (stereo partly drawn) [Compound A130], 88 nM corresponded to half-maximal inhibition (IC50). With `CCNC(=O)C(=O)[C@H](C[C@@H]1CCNC1=O)NC(=O)[C@H](CC1CC1)NC(=O)OC(c1ccccc1)C(F)(F)c1cccc(Cl)c1` (stereo partly drawn) [Compound A131] the figure was 0.2 nM; with `CCNC(=O)C(=O)[C@H](C[C@@H]1CCNC1=O)NC(=O)[C@H](CC1CCC1)NC(=O)OC(c1ccccc1)C(F)(F)c1cccc(Cl)c1` (stereo partly drawn) [Compound A132], 66 nM; with `O=C(N[C@@H](CC1CCCCC1)C(=O)N[C@@H](C[C@@H]1CCNC1=O)C(O)S(=O)(=O)O)O[C@@H](c1ccccc1)C(F)(F)c1cccc(F)c1` (stereo partly drawn) [Compound A133], 2 nM. For `CCNC(=O)C(=O)[C@H](C[C@@H]1CCNC1=O)NC(=O)[C@H](CC1CCCCC1)NC(=O)O[C@H](c1ccccc1)C(F)(F)c1cccc(Cl)c1` [Compound A134], the concentration for half-maximal inhibition (IC50) was 1180 nM. With `O=C(N[C@@H](CC1CCCCC1)C(=O)N[C@@H](C[C@@H]1CCNC1=O)C(O)S(=O)(=O)O)O[C@H](c1ccccc1)C(F)(F)c1cccc(Cl)c1` (stereo partly drawn) [Compound A135] the figure was 2.2 nM; with `CCCC[C@H](NC(=O)OC(c1ccccc1)C1(c2cccc(Cl)c2)CC1)C(=O)N[C@@H](C[C@@H]1CCNC1=O)C(=O)C(=O)NC1CC1` (stereo partly drawn) [Compound A136], 83 nM. The value for `CCCC[C@H](NC(=O)O[C@H](c1ccccc1)C(F)(F)c1cccc(Cl)c1)C(=O)N[C@@H](C[C@@H]1CCNC1=O)C(=O)C(=O)NC1CC1` [Compound A137] was 0.5 nM. The value for `CCCC[C@H](NC(=O)OC(c1ccccc1)C(F)(F)c1cccc(Cl)c1)C(=O)N[C@@H](C[C@@H]1CCNC1=O)C(=O)C(=O)NCC` (stereo partly drawn) [Compound A138] was 28 nM; that for `CC(C)C[C@H](NC(=O)O[C@@H](c1cccc(Cl)c1)C(C)(C)c1cccc(Cl)c1)C(=O)N[C@H](C=O)C[C@@H]1CCNC1=O` [Compound A139] was 3 nM; that for `CC(C)C[C@H](NC(=O)O[C@H](c1cccc(Cl)c1)C(C)(C)c1cccc(Cl)c1)C(=O)N[C@H](C=O)C[C@@H]1CCNC1=O` [Compound A140] was 45 nM. For the compound `O=C(N[C@@H](CC1CCCCC1)C(=O)N[C@@H](C[C@@H]1CCNC1=O)C(O)S(=O)(=O)O)O[C@@H](c1ccccc1)C(F)(F)c1cccc(Cl)c1` (stereo partly drawn) [Compound A141, sodium (2S)-2-((S)-2-((((S)-2-(3-chlorophenyl)-2,2-difluoro-1-phenylethoxy)carbonyl)amino)-3-cyclohexylpropanamido)-1-hydroxy-3-((S)-2-oxopyrrolidin-3-yl)propane-1-sulfonate], the IC50 was found to be 55 nM. With `CC(C)C[C@H](NC(=O)O[C@@H](c1cccc(Cl)c1)C(C)(C)c1cccc(Cl)c1)C(=O)N[C@@H](C[C@@H]1CCNC1=O)C(=O)C(=O)NC1CC1` [Compound A142] the figure was 32 nM; with `CCCC[C@H](NC(=O)O[C@@H](c1ccccc1)C(F)(F)c1cccc(F)c1)C(=O)N[C@H](C=O)C[C@@H]1CCNC1=O` [Compound A143], 4 nM. With `CCCC[C@H](NC(=O)O[C@H](c1ccccc1)C(F)(F)c1cccc(F)c1)C(=O)N[C@H](C=O)C[C@@H]1CCNC1=O` [Compound A144] the figure was 23 nM; with `CCC[C@H](NC(=O)OC(c1ccccc1)C(F)(F)c1cccc(Cl)c1)C(=O)N[C@@H](C[C@@H]1CCNC1=O)C(=O)C(=O)NCC` (stereo partly drawn) [Compound A145], 150 nM.

`CCCC[C@H](NC(=O)O[C@H](c1ccccc1)C(F)(F)c1cccc(Cl)c1)C(=O)N[C@H](C=O)C[C@@H]1CCCNC1=O` [Compound A146]: the midpoint of inhibition, the IC50, lay at 38 nM.

With `CC(C)C[C@H](NC(=O)O[C@H](c1cccc(Cl)c1)C(C)(C)c1cccc(Cl)c1)C(=O)N[C@@H](C[C@@H]1CCNC1=O)C(=O)C(=O)NC1CC1` [Compound A147], the IC50 stood at 558 nM. Regarding `CCC[C@H](NC(=O)O[C@@H](c1ccc(F)cc1)C(F)(F)c1cccc(Cl)c1)C(=O)N[C@H](C=O)C[C@@H]1CCNC1=O` [Compound A148], the IC50 amounted to 7 nM. For `CC(C)C[C@H](NC(=O)O[C@H](c1ccc(F)cc1)C(F)(F)c1cccc(Cl)c1)C(=O)N[C@H](C=O)C[C@@H]1CCNC1=O` [Compound A149], the half-inhibitory concentration (IC50) amounted to 0.1 nM. The value for `CCCC[C@H](NC(=O)O[C@@H](c1ccccc1)C(F)(F)c1cccc(Cl)c1)C(=O)N[C@H](C=O)C[C@@H]1CCCNC1=O` [Compound A150] was < 0.1 nM; that for `CCCCC[C@H](NC(=O)O[C@@H](c1ccccc1)C(F)(F)c1cccc(Cl)c1)C(=O)N[C@H](C=O)C[C@@H]1CCNC1=O` [Compound A151] was 0.2 nM; that for `CC(C)C[C@H](NC(=O)O[C@H](c1ccccc1)C(F)(F)c1cccc(F)c1)C(=O)N[C@H](C=O)C[C@@H]1CCNC1=O` [Compound A152] was 7.8 nM. With `CCC[C@H](NC(=O)O[C@@H](c1ccccc1)C(F)(F)c1cccc(Cl)c1)C(=O)N[C@H](C=O)C[C@@H]1CCNC1=O` [Compound A153] the figure was 0.6 nM. The value for `O=C[C@H](C[C@@H]1CCCNC1=O)NC(=O)[C@H](CC1CCCCC1)NC(=O)O[C@@H](c1ccccc1)C(F)(F)c1cccc(Cl)c1` [Compound A154] was 334 nM; that for `O=C[C@H](C[C@@H]1CCCNC1=O)NC(=O)[C@H](CC1CCCCC1)NC(=O)O[C@H](c1ccccc1)C(F)(F)c1cccc(Cl)c1` [Compound A155] was 611 nM; that for `O=C[C@H](C[C@@H]1CCNC1=O)NC(=O)[C@H](CC1CC1)NC(=O)O[C@@H](c1ccccc1)C(F)(F)c1cccc(Cl)c1` [Compound A156] was 289 nM.

Compound `O=C[C@H](C[C@@H]1CCNC1=O)NC(=O)[C@H](CC1CC1)NC(=O)O[C@H](c1ccccc1)C(F)(F)c1cccc(Cl)c1` [Compound A157] registered a half-maximal inhibitory concentration (IC50) of 0.2 nM.

Compound `CC(C)C[C@H](NC(=O)O[C@@H](c1ccccc1)C(C)(C)c1cccc(Cl)c1)C(=O)N[C@H](C=O)C[C@@H]1CCCNC1=O` [Compound A158] came in with an IC50 of 2 nM.

On to `CCCC[C@H](NC(=O)O[C@@H](c1ccc(F)cc1)C(F)(F)c1cccc(Cl)c1)C(=O)N[C@H](C=O)C[C@@H]1CCNC1=O` [Compound A159], for which the concentration for half-maximal inhibition (IC50) was found to be 3 nM.

Regarding `CCCC[C@H](NC(=O)O[C@H](c1ccc(F)cc1)C(F)(F)c1cccc(Cl)c1)C(=O)N[C@H](C=O)C[C@@H]1CCNC1=O` [Compound A160], inhibition was half-maximal at 470 nM (IC50). With `O=C[C@H](C[C@H]1CCNC1=O)NC(=O)[C@H](CC1CCCCC1)NC(=O)OC(c1ccccc1)C(F)(F)c1cccc(Cl)c1` (stereo partly drawn) [Compound A161] the figure was 582 nM; with `O=C[C@H](C[C@@H]1CCNC1=O)NC(=O)[C@H](CCC(F)F)NC(=O)OC(c1ccccc1)C(F)(F)c1cccc(Cl)c1` (stereo partly drawn) [Compound A163, 2-(3-chlorophenyl)-2,2-difluoro-1-phenylethyl ((S)-5,5-difluoro-1-oxo-1-(((S)-1-oxo-3-((S)-2-oxopyrrolidin-3-yl)propan-2-yl)amino)pentan-2-yl)carbamate], 17 nM; with `CCC[C@H](NC(=O)O[C@@H](c1ccccc1)C(F)(F)c1cccc(F)c1)C(=O)N[C@H](C=O)C[C@@H]1CCNC1=O` [Compound A166], 2.5 nM. The value for `CCCC[C@H](NC(=O)OC(c1ccccc1)C(F)(F)c1cccc(Cl)c1)C(=O)N[C@@H](C[C@H]1CCNC1=O)C(=O)C(=O)NC1CC1` (stereo partly drawn) [Compound A168] was 750 nM.

The compound `O=C(N[C@@H](CC1CCCCC1)C(=O)N[C@@H](C[C@H]1CCNC1=O)C(=O)C(=O)NC1CC1)OC(c1ccccc1)C(F)(F)c1cccc(Cl)c1` (stereo partly drawn) [Compound A169] had an IC50 of 1250 nM. On to `CC(C)C[C@H](NC(=O)OC(c1ccccc1)C(F)(F)c1cccc(C2CC2)c1)C(=O)N[C@@H](C[C@@H]1CCNC1=O)C(=O)C(=O)NC1CC1` (stereo partly drawn) [Compound A170], for which inhibition was half-maximal at 0.2 nM (IC50). `CC(C)C[C@H](NC(=O)OC(c1ccccc1)C(C)(C)c1cccc(C(F)(F)F)c1)C(=O)N[C@H](C=O)C[C@@H]1CCNC1=O` (stereo partly drawn) [Compound A171] registered an IC50 of 0.1 nM.

`CCC[C@H](NC(=O)O[C@H](c1ccccc1)C(F)(F)c1cccc(F)c1)C(=O)N[C@H](C=O)C[C@@H]1CCNC1=O` [Compound A172] gave an IC50 of 18.5 nM. Compared with the last compound, the IC50 is about 180-fold higher. With `CCNC(=O)C(=O)[C@H](C[C@@H]1CCNC1=O)NC(=O)[C@H](CC1CC1)NC(=O)O[C@@H](c1ccccc1)C(F)(F)c1cccc(Cl)c1` [Compound A174] the figure was 1.4 nM; with `O=C(N[C@@H](CC1CCCCC1)C(=O)N[C@@H](C[C@@H]1CCNC1=O)C(=O)C(=O)NC1CC1)O[C@H](c1ccccc1)C(F)(F)c1cccc(Cl)c1` [Compound A175], 1360 nM. `O=C(N[C@@H](CC1CC1)C(=O)N[C@@H](C[C@@H]1CCNC1=O)C(=O)C(=O)NC1CC1)O[C@@H](c1ccccc1)C(F)(F)c1cccc(Cl)c1` [Compound A176] came in with an IC50 of 2 nM.
